Legend:
Parastagonospora nodorum = assay: Preventive activity (7 days) against Parastagonospora nodorum on wheat; type: in vivo; settings: 250 ppm
Method: Determination of the preventive activity (7 days) of the compounds having formula (I) against Parastagonospora nodorum on wheat. […] After remaining 48 hours in a humidity-saturated environment, at 21° C., the plants were transferred for the incubation period (10-12 days) to a conditioned environment at 70% of R.H. and at a temperature of 24° C. At the end of this period, the external symptoms of the pathogen appeared and it was therefore possible to proceed with the visual evaluation of the intensity of the infection. The fungicidal activity was expressed as a percentage of the reduction, with respect to non-treated seedlings (comparison), in the area of the leaf affected by the disease (100=full effectiveness; 0=zero effectiveness). Table 7 indicates the results obtained by carrying out the test described with compound Nr. 12, compared with a compound described in WO2008/101682: […]

Helmintosporium teres = assay: Preventive fungicidal activity (7 days) against Helmintosporium teres on barley; type: in vivo; settings: for Activity P7: 125 ppm, scale 0 (completely infected plant) to 100 (healthy plant)
Method: Determination of the preventive fungicidal activity (7 days) against Helmintosporium teres on barley. […] After remaining 7 days in a conditioned environment, the plants were sprayed on both sides of the leaves with an aqueous suspension of conidia of Helmintosporium teres (50,000 conidia/cc+Tween 20-1 drop/100 ml). The plants were then kept in a controlled environment during the incubation period of the fungus (wet room 1 day for infection, 3 days in a cell with 70% of R.H. and at a temperature of […] for the incubation period, 3 days for completion in a wet room, biological cycle 12 days). At the end of this period (12 days), the fungicidal activity was evaluated according to an evaluation percentage scale from 0 (completely infected plant) to 100 (healthy plant).

Sphaerotheca Fuliginea = assay: Preventive fungicidal activity (7 days) against Sphaerotheca Fuliginea on cucumbers; type: in vivo
Method: Determination of the preventive fungicidal activity (7 days) against Sphaerotheca Fuliginea on cucumbers.
(§1) Cucumber plants cv. Lungo of China, grown in pots in a conditioned environment were treated by spraying both sides with the products under examination in a hydroacetonic solution with 20% by volume of acetone (vol./vol.).
7 days after the treatment, the plants were sprayed on the upper side with an aqueous suspension of spores of Sphaerotheca Fuliginea (200,000 spores/cc); they were then re-transferred to the conditioned environment.
At the end of the period of incubation (8 days), the evaluation of the intensity of the infection was finally effected.
(§2) The fungicidal activity is expressed as a percentage of the reduction, with respect to non-treated seedlings (comparison), in the area of the leaf affected by the disease (100=full effectiveness; 0=zero effectiveness).

[1] = Accelerated stability test of 5% solutions in commercial solvents (54° C., 2 weeks, HPLC); type: physicochemical
Method: Stability tests of the compositions containing compounds having formula (I) in a solvent
In order to evaluate the chemical stability of the compounds having Formula (I) in a solvent, 5% solutions were prepared, containing 250 mg of compounds Nr. 1, 17, 39 and 40, dissolved in 4.75 g of various commercial solvents used for the preparation of emulsifiable concentrates.
The resulting solutions were put in an oven at 54° C. for 2 weeks (according to Cipac MT 46.1 update 2012) and then analyzed by means of HPLC in order to verify the concentration of the active ingredient contained therein. The percentage of degradation of the compound having Formula (I) was therefore obtained, after the accelerated stability test.

wheat seedlings = assay: Phytotoxicity (percentage of leaf necrosis) on wheat seedlings; type: in vivo; settings: for Phytotoxicity % N.F. (leaf necrosis): wheat seedlings, scale 0-100
Method: (§3) Leaves of wheat plants of the Salgemma variety, grown in pots in a conditioned environment at 20° C. and 70% of Relative Humidity (RH) were treated by spraying both sides of the leaves with the compound under examination (see Table 4 hereunder) dispersed in a hydroacetonic solution at 20% by volume of acetone.
At the same time, an evaluation of the phytotoxicity was effected (percentage of leaf necrosis) induced on the wheat seedlings by the application of the products: in this case the evaluation scale ranges from 0 (completely healthy plant) to 100 (completely necrotic plant).

Puccinia Recondita = assay: Preventive fungicidal activity (5 days) against Puccinia Recondita on wheat; type: in vivo; settings: wheat; for Activity P5 NT (reduction of leaf area affected, parts developed during the test): non-treated parts (NT)
Method: Determination of the preventive fungicidal activity (5 days) against Puccinia Recondita on wheat.
as §3
After remaining 5 days in a conditioned environment, the plants were sprayed on both sides of the leaves with an aqueous suspension of conidia of Puccinia Recondita (2 mg of inoculum per 1 ml of solution for infection).
After spraying, the plants were kept in a humidity-saturated environment at a temperature ranging from 18 to 24° C. for the incubation period of the fungus (1 day).
At the end of this period, the plants were put in a greenhouse with a relative humidity (RH) of 70% and at a temperature of 18-24° C. for 14 days.
At the end of this period, the external symptoms of the pathogen appeared and it was therefore possible to proceed with the visual evaluation of the intensity of the infection, both on the parts treated directly with the products (T) and on the parts developed during the implementation of the test (NT).
as §2

cucumber seedlings = assay: Phytotoxicity (percentage of leaf necrosis) on cucumber seedlings; type: in vivo; settings: scale 0-100
Method: as §1
At the same time, an evaluation of the phytotoxicity was effected (percentage of leaf necrosis) induced on the cucumber seedlings by the application of the products: in this case the evaluation scale ranges from 0 (completely healthy plant) to 100 (completely necrotic plant).

bean seedlings = assay: Phytotoxicity (percentage of leaf necrosis) on bean seedlings; type: in vivo; settings: scale 0-100
Method: (§4) Bean plants cv. Borlotto of Vigevano, grown in pots in a conditioned environment, were treated by spraying both sides with the products under examination in a hydroacetonic solution with 20% by volume of acetone (vol./vol.).
At the same time, an evaluation of the phytotoxicity was effected (percentage of leaf necrosis) induced on the bean seedlings by the application of the products: in this case the evaluation scale ranges from 0 (completely healthy plant) to 100 (completely necrotic plant).

Uromyces Appendiculatus = assay: Preventive fungicidal activity (5 days) against Uromyces Appendiculatus on beans; type: in vivo
Method: Determination of the preventive fungicidal activity (5 days) against Uromyces Appendiculatus on beans.
as §4
After remaining 5 days in a conditioned environment at 23° C. and 70% of relative humidity, the plants were sprayed on the lower side with an aqueous suspension of spores of Uromyces Appendiculatus (200,000 spores/cc); after remaining 24 hours in a humidity-saturated environment, they were re-transferred to the conditioned environment.
After this period, the external symptoms of the pathogen appeared and it was therefore possible to proceed with the visual evaluation of the intensity of the infection.
as §2

N-ethyl-N-methyl-N′-[5-bromo-2-methyl-6-[(1-methyl -2-propoxyethoxy]pyridyl-3-formamidine [CR3]
Activity P7 (Parastagonospora nodorum): 57%

CCN(C)C=Nc1cc(Br)c(Sc2ccc(Cl)c(C(F)(F)F)c2)nc1C [Compound 8]
effectiveness on Helmintosporium teres (in words) (Helmintosporium teres): higher effectiveness with respect to the reference compound CR4 | Activity P7 (Helmintosporium teres): 30%

CCN(C)C=Nc1cc(Br)c(SCc2cccc(C(F)(F)F)c2)nc1C [Compound 1, N-ethyl-N-methyl-N′-5bromo-2-methyl-6-{[3-(trifluoromethyl)benzyl]thio}pyridyl-3-formamidine]
Activity P5 (Sphaerotheca Fuliginea; 30 ppm): 90% | Activity P5 (Sphaerotheca Fuliginea; 125 ppm): 100% | percentage of degradation ([1]; solvent ADMA 10 (N,N-dimethyldecanamide)): 1.07% | percentage of degradation ([1]; solvent Alkamuls T/20 (ethoxylated sorbitan monolaurate)): 58.61% | percentage of degradation ([1]; solvent CME (rapeseed methyl ester)): 10.79% | percentage of degradation ([1]; solvent FMPC (N-formylmorpholine and propylene carbonate)): 1.46% | percentage of degradation ([1]; solvent Green 25 (dimethylsulfoxide, acetophenone, 2-ethylhexyl acetate)): 2.07% | percentage of degradation ([1]; solvent Propylene carbonate): 3% | percentage of degradation ([1]; solvent Purasolv BL (butyl lactate)): 100% | percentage of degradation ([1]; solvent RPDE (dimethyl glutarate, dimethyl succinate, dimethyl adipate)): 0.78% | Phytotoxicity % N.F. (leaf necrosis) (wheat seedlings; 125 ppm): 0 % N.F. | Phytotoxicity % N.F. (leaf necrosis) (wheat seedlings; 250 ppm): 0 % N.F. | symptoms of phytotoxicity on the plant (in words) (wheat seedlings; wheat, summary of Table 4): do not show any symptoms of phytotoxicity | Activity P5 NT (reduction of leaf area affected, parts developed during the test) (Puccinia Recondita; 125 ppm): 75% | Activity P5 T (reduction of leaf area affected, parts treated directly) (Puccinia Recondita; 125 ppm): 98% | Activity P5 NT (reduction of leaf area affected, parts developed during the test) (Puccinia Recondita; 250 ppm): 85% | Activity P5 T (reduction of leaf area affected, parts treated directly) (Puccinia Recondita; 250 ppm): 100% | effectiveness in containing the disease (in words) (Puccinia Recondita; summary of Table 4): effective in containing the disease | Phytotoxicity % N.F. (leaf necrosis) (cucumber seedlings; 30 ppm): 0 % N.F. | Phytotoxicity % N.F. (leaf necrosis) (cucumber seedlings; 125 ppm): 0 % N.F. | Phytotoxicity % N.F. (leaf necrosis) (bean seedlings; 30 ppm): 0 % N.F. | Phytotoxicity % N.F. (leaf necrosis) (bean seedlings; 125 ppm): 0 % N.F. | Activity P5 (Uromyces Appendiculatus; 30 ppm): 90% | Activity P5 (Uromyces Appendiculatus; 125 ppm): 100%

N-ethyl-N-methyl-N′-[5-bromo-2-methyl-6-[(4-chloro-3-trifluoromethyl]phenoxy]pyridyl-3-formamidine [CR4, reference compound]
effectiveness on Helmintosporium teres (in words) (Helmintosporium teres): completely inactive | Activity P7 (Helmintosporium teres): 0%
